The results in this text go back to patent US5824533A, “Orpinomyces xylanase proteins and coding sequences” (University of Georgia Research Foundation, Inc., priority 1995, dated 1998).

This assay deals with Orpinomyces sp. strain PC-2 endoxylanase XynA-1 (purified native enzyme, 29 kDa). Briefly: Effect of reagents on purified endoxylanase activity (residual activity on oat spelt xylan). It counts as biochemical. The procedure: Enzyme assays: All enzyme assays were carried out in duplicate and in 50 mM piperazine/HCl buffer at pH 5.5 and 40° C. unless otherwise stated.
a. Xylanase activity was assayed by mixing a 0.2 ml aliquot of diluted enzyme with 0.4 ml buffer containing 1.0% (w/v) oat spelt xylan (Sigma Chemical Co., St. Louis, Mo.), preheated to 40° C. After 15 min at 40° C., the reaction was terminated by the addition of 1.2 ml of 3,5-dinitrosalicylic acid (DNS) (Miller, 1959), followed by 0.2 ml of 2.5N NaOH to dissolve the residual water-insoluble xylan. The reaction tube was then placed in boiling water for 5 min before determining the absorbance at 550 nm (A550 nm). Xylose was used as the standard.
The effects of various metal ions and reagents on xylanase activity were determined in 50 mM piperazine-HCl, pH 5.5. The enzyme and metal ions or reagents (1 and 3 mM) were preincubated at 22° C. for 10 min; residual activities were measured at 40° C.

The mark [1] stands for this setting: reagent 1 mM, preincubated 22° C. 10 min, residual activity at 40° C., 50 mM piperazine-HCl pH 5.5, control without reagent = 100%.
[2] abbreviates: reagent 3 mM, preincubated 22° C. 10 min, residual activity at 40° C., 50 mM piperazine-HCl pH 5.5, control without reagent = 100%.
Where [3] appears, read: reagent 1 and 3 mM, 50 mM piperazine-HCl pH 5.5.

Several values for one entry are separate records, joined by “and”; a condition that tells them apart may be missing. Identical values can stand only once. Entries after “also recorded” stand apart in the source; their conditions may differ.

`OCCS` [β-Mercaptoethanol]: the “Relative activity (%)” value under setting [1] amounted to 96.7% and the “Relative activity (%)” value under setting [2] was 95.4%. The “Effect on xylanase activity (in words)” value under setting [3] is given as “do not significantly effect xylanase activity”.
Regarding `O=C(O)c1cc[c]([Hg+])cc1.[OH-]` [Hydroxymercuribenzoate, p-hydroxymercuribenzoate], the “Effect on xylanase activity (in words)” value (reagent 1 mM) is listed as “total inactivation”. Besides, the “Relative activity (%)” value is, setting by setting: under setting [1], 0%; under setting [2], 0%.
Consider `O=C(O)CN(CCN(CC(=O)O)CC(=O)O)CC(=O)O` [EDTA], for which, for the setting “pH 5.5”, the “Effect on xylanase activity (in words)” value is “do not significantly effect xylanase activity”; the “Relative activity (%)” value was 96.3% and 93.7%.
On to `O=[N+]([O-])c1ccc(O)c(CBr)c1` [2-Hydroxy-5-nitroxyl-5-nitrobenzyl-bromide], for which the “Relative activity (%)” value under setting [1] worked out at 85.5% and the “Relative activity (%)” value under setting [2] is on record as 63.3%. Under setting [3], the “Effect on xylanase activity (in words)” value is “inhibitory”.
As to `O=C1CCC(=O)N1Br` [N-Bromosuccinimide], the “Effect on xylanase activity (in words)” value (reagent 1 mM) was “total inactivation; also recorded: completely inhibited”. Also, the “Relative activity (%)” value was determined as 0% under setting [1] and 0% under setting [2].
